Where “and” joins values, the source holds several entries; their conditions need not be identical. Equal entries are not always repeated.
Assays:
Xa = Xa (Homo sapiens, UniProt P00742); experiment: Determination of inhibition constants for Xa; format: biochemical
Summary of the method: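 Chromogenic assays measured absorbance at 405 nm: zero-order reactions were stopped with acetic acid after 20 min, and pseudo-first-order rates were recorded kinetically at equilibrium. Ki was obtained by Dixon linear regression or by fitting to the competitive-inhibition rate equation, averaging at least two determinations.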

Human factor XIa = target: T1, Human factor XIa (Homo sapiens, UniProt P03951); experiment: Inhibition constants against purified human serine proteases: FXIa; format: biochemical
T1 construct: Human factor Xa, factor XIa, factor XIIa, thrombin, and plasma kallikrein were purchased; purchased Enzyme Research Laboratories (via Haemochrom, Essen)
T1 sequence (P03951 388-625 limits assumed): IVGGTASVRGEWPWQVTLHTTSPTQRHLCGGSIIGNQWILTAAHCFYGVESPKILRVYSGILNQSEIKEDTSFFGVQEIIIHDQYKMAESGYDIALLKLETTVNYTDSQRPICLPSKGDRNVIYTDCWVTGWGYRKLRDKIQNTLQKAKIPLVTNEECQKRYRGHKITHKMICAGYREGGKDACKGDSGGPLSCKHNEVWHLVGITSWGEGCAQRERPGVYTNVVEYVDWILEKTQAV
T1 sequence (P03951 19-387 partner limits assumed): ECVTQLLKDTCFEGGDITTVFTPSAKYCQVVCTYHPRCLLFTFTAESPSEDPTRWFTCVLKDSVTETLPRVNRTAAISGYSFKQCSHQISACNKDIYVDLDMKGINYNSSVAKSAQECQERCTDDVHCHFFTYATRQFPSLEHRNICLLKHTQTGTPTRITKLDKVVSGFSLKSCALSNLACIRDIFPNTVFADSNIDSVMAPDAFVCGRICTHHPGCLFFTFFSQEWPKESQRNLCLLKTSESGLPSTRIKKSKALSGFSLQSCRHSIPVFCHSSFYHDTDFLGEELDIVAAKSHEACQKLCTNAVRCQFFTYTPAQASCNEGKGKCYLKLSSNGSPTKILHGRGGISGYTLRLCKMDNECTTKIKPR
From the text: (§1) Aprotinin and tranexamic acid were purchased from SIGMA (Schnelldorf, Germany). Human factor Xa, factor XIa, factor XIIa, thrombin, and plasma kallikrein were purchased from Enzyme Research Laboratories, and human plasmin from Chromogenix (both via Haemochrom, Essen, Germany). Various synthetic peptide chromogenic substrates used for determination of inhibition constants were obtained from Pentapharm (Basel, Switzerland), Roche (Mannheim, Germany), and Chromogenix: Chromozyme PL for plasmin, S2302 for plasma kallikrein, Pefachrome FXa for factor Xa, Chromozym XII for FXIIa, Pefachrom tPA for thrombin, and Pefachrome PCa for factor XIa. […]
(§2) Inhibition of purified human serine proteases by Compound No. 3 and aprotinin was studied using the established methods described herein in Example 3 (i.e., Stürzebecher et al., 1997). […] Steady-state velocities of substrate conversion were obtained from progress curves generated by continuous monitoring of the absorbance at 405 nm with a microplate reader (Multiskan Ascent, Thermo Electron Corporation, Dreieich, Germany). […] Inhibition constants (Ki) were calculated from non-linear fits of individual data sets to the Michaelis-Menten equation for competitive inhibitors using an enzyme kinetic analysis software (SIGMA Plot® 9.0 Enzyme Kinetics Module, SSI, San Jose, Calif.). […]

[1] = target: T2, Human factor XIIa (alpha) (Homo sapiens, UniProt P00748); experiment: Inhibition constants against purified human serine proteases: FXIIa; format: biochemical; settings: 50 mM Tris-HCl pH 8.0, 154 mM NaCl, Chromozym XII
T2 construct: Human factor Xa, factor XIa, factor XIIa, thrombin, and plasma kallikrein were purchased; purchased Enzyme Research Laboratories (via Haemochrom, Essen)
T2 sequence (P00748 373-615 limits assumed): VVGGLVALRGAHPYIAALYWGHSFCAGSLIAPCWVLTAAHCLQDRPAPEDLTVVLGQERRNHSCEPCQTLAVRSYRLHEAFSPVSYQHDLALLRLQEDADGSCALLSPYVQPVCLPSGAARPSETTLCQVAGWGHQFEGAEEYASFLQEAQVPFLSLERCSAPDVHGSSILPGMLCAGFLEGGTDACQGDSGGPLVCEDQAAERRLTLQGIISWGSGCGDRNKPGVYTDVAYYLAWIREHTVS
T2 sequence (P00748 20-372 partner limits assumed): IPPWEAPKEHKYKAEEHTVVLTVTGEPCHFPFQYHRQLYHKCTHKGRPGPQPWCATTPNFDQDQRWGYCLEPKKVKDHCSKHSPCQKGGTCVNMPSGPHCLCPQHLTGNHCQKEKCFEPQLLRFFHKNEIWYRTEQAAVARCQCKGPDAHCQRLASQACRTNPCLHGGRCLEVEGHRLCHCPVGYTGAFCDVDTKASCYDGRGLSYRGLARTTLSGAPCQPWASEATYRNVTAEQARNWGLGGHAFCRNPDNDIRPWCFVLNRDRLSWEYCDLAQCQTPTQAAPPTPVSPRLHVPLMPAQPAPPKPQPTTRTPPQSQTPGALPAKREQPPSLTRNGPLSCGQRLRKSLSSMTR
From the text: as §1, §2

[2] = test system: thrombin generation in platelet-rich human plasma; experiment: Thrombin generation assay (Technothrombin TGA); format: cell-based; settings: 100 to 1000 nM, intrinsic and extrinsic activation
Experimental: Venous blood was withdrawn from the antecubital vein from healthy volunteers after written informed consent in accordance with local and federal guidelines with approval of the local review board (Ethikkommission, Klinikum Charité, Sauerbruchweg 5, 10117 Berlin). The blood was mixed with 0.11 mol/L sodium citrate (1:10). For ROTEM® analysis, whole citrated blood was used within 8 h after collection. Platelet-rich plasma (PRP) was prepared from citrated blood by centrifugation at 330×g for 10 min at room temperature, platelet-poor plasma (PPP) was collected following centrifugation at 1220×g for 12 min. The PRP was then adjusted to 3×10^8 platelets per mL using the autologous PPP. PRP was maintained at room temperature for less than 4 h before analysis. The remaining PPP was subjected to a high-speed centrifugation at 40,000×g for 30 min at 4° C. to remove any particulate material and was then stored at −70° C. until use.
The impact of Compound No. 3 and aprotinin on thrombin generation was studied in PRP using the commercially available Technothrombin® TGA kit (Technoclone, Vienna, Austria). This method allows assessment of the dynamics of thrombin generation, i.e. initiation, propagation, and inactivation phases, including the contribution of platelet function to the clotting process (Hemker et al., Pathophysiol. Haemost. Thromb. 33: 4-15, 2003). PRP was spiked with test compounds at different concentrations and pre-warmed to 37° C. in a black 96-well flat-bottom plate (Nunc, Wiesbaden, Germany). Thrombin generation was then initiated by adding a mixture of activator and fluorogenic thrombin substrate. […] Starting immediately after addition of reagents, fluorescence was recorded every 60 s for 120 min using the BMG POLARstar microplate reader (BMG Labtech, Offenburg, Germany) set at 390 nm excitation and 460 nm emission maintaining a temperature of 37° C. […] A typical thrombin generation curve is generated by plotting the first derivative (dF/dt) of the original fluorescence versus time curve and comparing it to a standard run containing known amounts of thrombin in buffer. […]

plasmin = plasmin (Homo sapiens, UniProt P00747); experiment: Inhibition constants against purified human serine proteases: plasmin; format: biochemical; parameters: purchased Calbiochem; settings: 50 mM Tris-HCl pH 8.0, 154 mM NaCl, Chromozyme PL
plasmin, sequence (P00747 581-810 limits assumed): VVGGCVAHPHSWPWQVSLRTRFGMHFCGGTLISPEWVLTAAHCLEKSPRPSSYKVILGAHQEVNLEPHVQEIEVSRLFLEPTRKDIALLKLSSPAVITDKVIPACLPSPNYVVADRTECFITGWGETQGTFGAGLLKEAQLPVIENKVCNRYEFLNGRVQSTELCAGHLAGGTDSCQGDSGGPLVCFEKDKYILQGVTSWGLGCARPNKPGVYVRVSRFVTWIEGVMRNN
plasmin, sequence (P00747 97-580 partner limits assumed): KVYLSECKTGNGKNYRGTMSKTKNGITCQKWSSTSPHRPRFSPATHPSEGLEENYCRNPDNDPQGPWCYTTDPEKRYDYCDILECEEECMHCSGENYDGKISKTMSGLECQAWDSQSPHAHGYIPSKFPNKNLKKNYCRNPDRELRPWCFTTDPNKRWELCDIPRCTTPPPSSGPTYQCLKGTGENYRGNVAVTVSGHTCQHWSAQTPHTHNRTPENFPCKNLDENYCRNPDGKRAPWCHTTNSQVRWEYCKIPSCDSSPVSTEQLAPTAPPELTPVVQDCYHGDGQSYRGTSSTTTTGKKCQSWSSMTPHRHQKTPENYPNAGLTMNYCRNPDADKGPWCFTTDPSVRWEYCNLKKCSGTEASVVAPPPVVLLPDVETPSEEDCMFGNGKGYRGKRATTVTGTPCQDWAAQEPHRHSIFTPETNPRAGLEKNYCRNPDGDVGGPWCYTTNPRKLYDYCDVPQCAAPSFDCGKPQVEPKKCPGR
From the text: as §1, §2

Xa, sequence (P00742 235-488 limits assumed): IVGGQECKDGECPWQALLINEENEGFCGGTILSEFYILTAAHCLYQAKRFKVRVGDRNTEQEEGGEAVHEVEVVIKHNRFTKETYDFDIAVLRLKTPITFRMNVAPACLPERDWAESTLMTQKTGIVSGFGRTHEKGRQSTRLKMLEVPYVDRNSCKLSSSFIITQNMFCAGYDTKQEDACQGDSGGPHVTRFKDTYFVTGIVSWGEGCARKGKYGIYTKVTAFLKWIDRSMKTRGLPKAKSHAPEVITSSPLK
Xa, sequence (P00742 41-179 limits assumed): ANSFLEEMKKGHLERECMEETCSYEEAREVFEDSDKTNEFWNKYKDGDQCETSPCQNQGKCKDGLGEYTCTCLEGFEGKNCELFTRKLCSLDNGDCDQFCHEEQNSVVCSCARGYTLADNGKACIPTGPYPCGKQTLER

For `N=C(N)c1ccc(CNC(=O)[C@H](Cc2cccc(CN)c2)NC(=O)[C@@H](CCCc2ccccc2)NS(=O)(=O)Cc2cccc(C(=O)O)c2)cc1` [compound 3, 3-HOOC-Bzls-d-Ppg-Phe(3-Ame)-4-Amba×2 acetate], the Ki (Xa) was under 100 nM, the Ki (Human factor XIa; 50 mM Tris-HCl pH 8.0, 154 mM NaCl, Pefachrome PCa) was 18 ± 1 nM and the “stronger inhibition of FXIa than aprotinin” value (Human factor XIa; versus aprotinin) was 100 fold. For the same compound, the Ki [1] was 5200 ± 400 nM, the endogenous thrombin potential [2] was “no impact” and the “onset of thrombin generation” value [2] was “concentration-dependent delay”. For the same compound, the peak thrombin level [2] was “reduction” and the Ki (plasmin) was 2.3 nM and 2.2 nM.
